Measured values reported in paper PMC4389225, “Triaminopyrimidine is a fast-killing and long-acting antimalarial clinical candidate” (Nature Communications, 2015).
Where two headings read alike, the source gives them in different places.

Columns and labels:
Enzyme [1] = assay: Secondary pharmacology panel, target #19
Description: (§1) For enzyme and kinase assays, the results were expressed as a percent inhibition of control-specific activity obtained in the presence of the test compound. The IC50 values (concentration causing a half-maximal inhibition of control-specific activity) and Hill coefficients (nH) were determined by nonlinear regression analysis of the inhibition/concentration–response curves using Hill equation curve fitting as described earlier[37].
(§2) For assessment of activity against these targets, compounds were tested in an 8-point
(§3) concentration response covering half-log units up to a top test concentration of 100 µM, and
(§4) an IC50 or Ki determined using either radio ligand binding assays or enzyme activity assays.

GPCR [2] = assay: Secondary pharmacology panel, target #12
Description: (§5) An in vitro pharmacological profiling panel was specifically designed for the detection of potential high- risk clinical adverse drug reactions. […] For enzyme and kinase assays, the results were expressed as a percent inhibition of control-specific activity obtained in the presence of the test compound. The IC50 values (concentration causing a half-maximal inhibition of control-specific activity) and Hill coefficients (nH) were determined by nonlinear regression analysis of the inhibition/concentration–response curves using Hill equation curve fitting as described earlier[37].
(§6) For radioligand binding assays, the results are expressed as % inhibition of control-specific binding obtained in the presence of the test compounds. The IC50 values (concentration causing a half-maximal inhibition of control-specific binding) and Hill coefficients (nH) were determined by nonlinear regression analysis of the competition curves generated with mean replicate values using Hill equation curve fitting. The inhibition constants (Ki) were subsequently calculated by applying the Cheng Prusoff equation[38].
as §2, §3, §4

Ion channel [3] = assay: Secondary pharmacology panel, target #16
Description: as §5, §6, §2, §3, §4

hERG = biological target: T1, hERG (Homo sapiens, UniProt Q12809); assay: electrophysiology-based hERG assay using IonWorks HT (CHO cells); format: cell-based
T1 construct: expressed in transfected cells; host or cells: CHO cells
Description: hERG IC50 was determined in an electrophysiology-based hERG assay using IonWorks HT (CHO cells) as described earlier.

[4] = 3-day rat tolerability study of compound 2; format: in vivo
Description: Protein binding (human free) […]
μM Cmax (total). Consequently, compound 2 was classified as having no therapeutic window preclinically in this model.
Rat 3 Day Toxicology Study: Male Han Wister rats (n=4) received compound 2 at dose levels of 100 or 300 mg/kg for three days (AstraZeneca, Waltham, USA).
One animal was found dead, and one considered moribund on the morning of Day 4, before

Enzyme [5] = assay: Secondary pharmacology panel, target #15
Description: as §1, §2, §3, §4

Ion channel [6] = assay: Secondary pharmacology panel, target #17
Description: as §5, §6, §2, §3, §4

Ion channel [7] = assay: Secondary pharmacology panel, target #21
Description: as §5, §6, §2, §3, §4

[8] = biological target: T2, acetylcholine esterase (AChE) (Homo sapiens, UniProt P22303); assay: AChE enzyme activity assay (CEREP); format: biochemical
T2 construct: purchased CEREP, France (external assay service) 0363
Description: An in vitro pharmacological profiling panel was specifically designed for the detection of potential high- risk clinical adverse drug reactions. The panel comprised of 26 diverse targets (6 enzymes, 2 transporters, 9 G-protein-coupled receptors (GPCRs), 5 ion channels along with hERG, M2, alpha1A and AchE) and was conduced externally by CEREP, France […]. […] Detailed methodology for in vitro pharmacological profiling assays provided by CEREP can be found at http://www.cerep.fr, with specific reference to the AChE (cat. no. 0363), Muscarinic M1 receptor (cat. no. 0091) and Adrenergic α1A receptor (cat. no. 2338) assays. For enzyme and kinase assays, the results were expressed as a percent inhibition of control-specific activity obtained in the presence of the test compound. The IC50 values (concentration causing a half-maximal inhibition of control-specific activity) and Hill coefficients (nH) were determined by nonlinear regression analysis of the inhibition/concentration–response curves using Hill equation curve fitting as described earlier.

GPCR [9] = assay: Secondary pharmacology panel, target #13
Description: as §5, §6, §2, §3, §4

Hepatocyte Clint, rat = format: in vitro ADME; details: for Predicted blood CL: Rat
From the text: Supplementary Note 5: Prediction of human clearance for compound 12 by IVIVE.
Human clearance (CL) was predicted by in vitro-in vivo extrapolation (IVIVE) from the in vitro Clint in human hepatocytes6. In vitro Clint was scaled to in vivo Clint as follows:
Clint in vivo = Clint in vitro * scaling factors * fublood/fuinc
The liver weights used for scaling were 40, 32 and 24 g/kg body weight in rat, dog and human respectively. Hepatocellularity used for scaling was 163, 169 and 120 (X 106) cells/g liver in rat, dog and human respectively. Free fraction in blood was calculated as fuplasma /Blood:Plasma (BP) ratio. BP ratio and free fraction in the hepatocyte incubation mix, fuinc, were measured in vitro. Slope and intercept from the linear regression analysis of IVIVC for a large number of AstraZeneca compounds was applied for final correction in the scaled in vivo Clint. A well stirred model was used for CL prediction.
Where Qh is the liver blood flow. The values of Qh in rat, dog and human are 72, 55 and 20 mL.min-1kg-1 in rat, dog and human, respectively. In vitro parameters, observed in vivo CL and predicted CL are shown in supplementary Table 10. […]
(also on this page, place not known: in vivo in vivo CLintQ CLintQCL Predicted predicted predicted h h + ×=)
(1 picture or pasted object on this page, not shown here)

[10] = 3-day rat toxicity (tolerability) study of compound 12; format: in vivo; details: for Summary of clinical signs and effects: NOEL = no observed effect level
Description: Two groups of male rats (n=3, Han Wistar) were obtained from Charles River Laboratories, UK. Animals were group housed for ~1 week before the initiation of dosing. On the first day of dosing, rats were ~11 weeks of age and weighed 250–300 g and received compound 12 via oral gavage at dose levels of 75 or 150 mg kg^−1 for three consecutive days and necropsied 24 h after the final dose. Vehicle: 1% pluronic F127; dose volume: 10 ml kg^−1. In addition to regular monitoring of the animals' general condition, toxicokinetic profiles were obtained on day 1 and clinical chemistry, haematology and histopathology were assessed from all animals on day 4. Female animals were not included in the study as sex differences in either exposure or tolerability were not expected and control animals were excluded from this preliminary study design to reduce animal usage. Body weights were collected during acclimation and before each dose. Food and water consumption were available ad libitum but not recorded.
Toxicokinetic profiles were obtained on day 1 from all animals (time points: 0.5, 1, 2, 4, 6 and 24 h post dose) via microsample tail prick (32 μl blood) and were analysed using a qualified analytical procedure. Clinical pathology blood samples were taken at necropsy (24 h after third and final dose) from all animals, and analysed following a routine toxicological parameter list. Urinalysis was not performed.

Dd2 = assay: SYBR green growth assay, Dd2 (parental); format: cell-based, P. falciparum; details: Plasmodium falciparum, DD2, Dd2 parental; mean ± SD, Supplementary Table 13
Description: To eliminate overlapping mode of action with known targets, cross-resistance testing of representative TAPs against drug-resistant lines with well-characterized mutations in Pf dihydroorotate dehydrogenase, Pf heat-shock protein 90, Pf chloroquine resistance transporter[25] or Pf cytochrome b reduction site[26] was performed. […] Assays were carried out in 384-well format with three technical replicates within an assay day and biological replicates carried out on three different assay days to assign a final EC50.
A representative TAP (compound 6) was tested for its activity against a panel of P. falciparum strains known to harbour mutations conferring resistance to antimalarial agents under development. Artesunate and amodiaquine were included as additional control […]
Values are the means ± standard deviation derived from three independent assays performed

[11] = Target #18, hERG, read-out: Binding Ki / Enzyme IC50
[12] = Binding Ki / Enzyme IC50, Target #3, AChE

T1 sequence (Q12809 whole entry): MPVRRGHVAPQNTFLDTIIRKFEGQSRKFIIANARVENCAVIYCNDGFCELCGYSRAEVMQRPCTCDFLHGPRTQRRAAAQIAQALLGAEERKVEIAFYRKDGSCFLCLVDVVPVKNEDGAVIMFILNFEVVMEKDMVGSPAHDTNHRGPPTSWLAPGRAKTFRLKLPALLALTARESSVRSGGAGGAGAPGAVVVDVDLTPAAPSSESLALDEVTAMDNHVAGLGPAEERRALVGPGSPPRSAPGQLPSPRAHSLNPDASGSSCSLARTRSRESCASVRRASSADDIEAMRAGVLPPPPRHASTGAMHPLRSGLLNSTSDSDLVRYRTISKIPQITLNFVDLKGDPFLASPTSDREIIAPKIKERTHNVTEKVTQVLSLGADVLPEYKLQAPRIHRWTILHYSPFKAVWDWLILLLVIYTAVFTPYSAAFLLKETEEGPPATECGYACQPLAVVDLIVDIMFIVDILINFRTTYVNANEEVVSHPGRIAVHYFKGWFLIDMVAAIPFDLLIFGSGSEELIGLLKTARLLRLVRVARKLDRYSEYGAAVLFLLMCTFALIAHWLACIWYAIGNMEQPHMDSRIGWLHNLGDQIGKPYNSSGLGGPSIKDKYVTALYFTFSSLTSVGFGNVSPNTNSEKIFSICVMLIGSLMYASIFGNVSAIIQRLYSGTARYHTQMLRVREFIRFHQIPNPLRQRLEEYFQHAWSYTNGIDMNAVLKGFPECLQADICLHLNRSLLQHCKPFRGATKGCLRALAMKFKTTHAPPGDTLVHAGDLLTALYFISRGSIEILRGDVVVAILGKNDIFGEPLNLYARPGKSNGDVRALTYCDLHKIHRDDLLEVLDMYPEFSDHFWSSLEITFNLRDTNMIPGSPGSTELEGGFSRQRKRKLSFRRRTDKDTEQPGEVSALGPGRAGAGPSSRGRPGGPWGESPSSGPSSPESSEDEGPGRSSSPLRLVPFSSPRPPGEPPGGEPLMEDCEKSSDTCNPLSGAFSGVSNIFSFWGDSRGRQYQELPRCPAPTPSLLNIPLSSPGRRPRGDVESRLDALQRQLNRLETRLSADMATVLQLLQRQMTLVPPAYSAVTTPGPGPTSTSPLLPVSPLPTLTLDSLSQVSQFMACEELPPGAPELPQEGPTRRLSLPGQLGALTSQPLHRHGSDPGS
T2 sequence (P22303 32-614): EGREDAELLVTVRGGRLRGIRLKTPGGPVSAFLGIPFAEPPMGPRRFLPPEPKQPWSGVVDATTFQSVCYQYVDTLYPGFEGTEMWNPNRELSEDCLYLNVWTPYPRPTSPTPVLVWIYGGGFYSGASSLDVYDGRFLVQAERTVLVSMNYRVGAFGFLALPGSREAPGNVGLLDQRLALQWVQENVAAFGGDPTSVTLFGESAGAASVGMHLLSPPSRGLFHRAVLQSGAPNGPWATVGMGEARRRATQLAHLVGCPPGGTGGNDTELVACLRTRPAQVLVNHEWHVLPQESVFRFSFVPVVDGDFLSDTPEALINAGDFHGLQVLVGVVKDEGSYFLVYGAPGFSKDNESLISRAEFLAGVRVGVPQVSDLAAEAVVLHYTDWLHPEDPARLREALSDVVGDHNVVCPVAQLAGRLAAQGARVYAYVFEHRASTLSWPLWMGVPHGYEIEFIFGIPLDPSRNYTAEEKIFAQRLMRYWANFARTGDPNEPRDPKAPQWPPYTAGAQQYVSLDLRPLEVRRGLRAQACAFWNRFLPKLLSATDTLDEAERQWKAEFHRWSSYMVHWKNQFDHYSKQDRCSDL

| Structure (SMILES) | Binding Ki / Enzyme IC50 (Enzyme [1]) | Binding Ki / Enzyme IC50 (GPCR [2]) | Binding Ki / Enzyme IC50 (Ion channel [3]) | IC50 (hERG; [11]) | IC50 (hERG; hERG IC50) | Binding Ki / Enzyme IC50 (Enzyme [5]) | Binding Ki / Enzyme IC50 (Ion channel [6]) | Binding Ki / Enzyme IC50 (Ion channel [7]) | IC50 [8, 12] | IC50 ([8]; read-out: AChE IC50) | Binding Ki / Enzyme IC50 (GPCR [9]) | also measured |
| --- | --- | --- | --- | --- | --- | --- | --- | --- | --- | --- | --- | --- |
| Cc1cc(Nc2ncc(N3CCN(C)CC3)c(N3CCCC3)n2)ccn1 [compound 2] | > 100 µM | 30.45 µM | 33.2 µM | 85.02 µM | 85 µM | 13 µM | 59 µM | > 100 µM | 0.179 µM | 0.16 µM | 38.7 µM | A - Plasma Cmax Total ([4]; 100 mg/kg oral): 8.13 µM; Safety Margin (A / B) ([4]; 100 mg/kg oral): None; Summary of clinical signs and effects ([4]; 100 mg/kg oral): Non-specific toxicity; A - Plasma Cmax Total ([4]; 300 mg/kg oral): 19.18 µM; Safety Margin (A / B) ([4]; 300 mg/kg oral): None; Summary of clinical signs and effects ([4]; 300 mg/kg oral): Premature decedents; Selectivity ratio for AChE (IC50 / blood Cmin at ED90 in the Pf/SCID model) [8]: < 1 |
| Cc1nc(Nc2ncc(N3CCN(C)[C@H](C)C3)c(Nc3cc(C)n(C)n3)n2)cc(C2CC2)c1F [compound 12, (R)-N2-(4-cyclopropyl-5-fluoro-6-methylpyridin-2-yl)-N4-(1,5-dimethyl-1H-pyrazol-3-yl)-5-(3,4-dimethylpiperazin-1-yl)pyrimidine-2,4-diamine] | 14.5 µM | 10.9 µM | > 100 µM | 35.9 µM | 33 µM | 11.6 µM | > 100 µM | > 100 µM | 78 µM | > 75 µM | 11.5 µM | selectivity ratio (hERG; human, CHO cells that express hERG, relative to Pf potency, read-out: selectivity against hERG): > 1000; Predicted blood CL (Hepatocyte Clint, rat): 26 % LBF; Predicted blood CL (Hepatocyte Clint, rat; IVIVC from hepatocyte Clint): 18.8 mL/min/kg; hepatocyte CLint (Hepatocyte Clint, rat; rat, hepatocytes): 11.3 µL/min/1e6 cells; A—plasma Cmax free ([10]; 75 mg kg^−1 per day oral): 0.11 µM; Safety margin (A/B)-free Cmax ([10]; 75 mg kg^−1 per day oral): 12.6; Summary of clinical signs and effects ([10]; 75 mg kg^−1 per day oral): NOEL; A—plasma Cmax free ([10]; 150 mg kg^−1 per day oral): 0.13 µM; Safety margin (A/B)-free Cmax ([10]; 150 mg kg^−1 per day oral): 15; Summary of clinical signs and effects ([10]; 150 mg kg^−1 per day oral): NOEL; clinical pathology and histopathology findings ([10]; 75 or 150 mg kg^−1 oral, three days): no findings considered related to treatment; IC50 (Dd2): 0.0161 ± 0.001 µM; selectivity against AChE ([8]; relative to Pf potency): > 1,000 fold |
